# From PubChem BioAssay AID2060602 (Molecular Pharmacology Branch, DTP, NCI, 2025)
# pIC50: −log10 of the molar value.
# Test system: 648629-189-R-J1-PDC complex spheroids viability
# Assay: Anticancer human tumor 648629-189-R-J1-PDC patient-derived bladder carcinoma cell line growth inhibition [CLK]
# Conditions: for pIC50: curve of first compound; for viability, T/C: stronger effect = lower value
# Text: A high-throughput screen of multi-cell type tumor spheroids was designed to identify active combinations of […] and targeted small molecules. Complex spheroids include a stromal component modeled by human endothelial cells (HUVEC) and fibroblasts modeled by human mesenchymal stem cells (MSCs). The concentration ranges selected for each drug and investigational agent were based upon clinically achievable concentrations if the clinical Cmax of the agent was known.
# Compounds. The drugs and investigational agents: cirtuvivint (SM08502; NSC835563), CC-671 (NSC850746), vemurafenib (NSC761431), tapotoclax (NSC804041), sotorasib (NSC818433), adagrasib (NSC831453), MRTX-1133 (NSC836407), BAY2416964 (NSC825713), copanlisib (NSC816437), inavolisib (NSC800729), abemaciclib (NSC768073), osimertinib (NSC779217), entinostat (NSC756642), eltanexor (KPT-8602, NSC794443), venetoclax (NSC766270), ceralasertib (NSC777638), bortezomib (NSC756655), olaparib (NSC753686), talazoparib (NSC767125), alisertib (NSC759677), peposertib (NSC802822), gemcitabine (NSC613327), 5-fluorouracil (NSC19893), SN-38 (NSC673596), oxaliplatin (NSC266046), paclitaxel (NSC125973), and doxorubicin (NSC123127), were obtained from the National Cancer Institute (NCI) Developmental Therapeutics Program Chemical Repository. The FDA-approved anticancer drug set is available from the Developmental Therapeutics Program at https://dtp.cancer.gov/organization/dscb/obtaining/available plates.htm. […] The stock solutions were prepared in dimethyl sulfoxide (DMSO, Sigma-Aldrich, St. Louis, MO, cat. D2650), except for the platinum complexes which were prepared in saline (Quality Biological, Gaithersburg, MD, cat. 114-055-101), at 800-fold the tested concentration and stored at -70 degrees C prior to their use. All drugs and investigational agents were tested over a range starting from a high concentration at or near the clinical Cmax and decreasing in half-log increments. If the clinical Cmax for an agent had not been determined, the highest concentration tested was 10 microM.
# Cell Culture. All cells were maintained in an incubator at 37 degrees C and 5% CO2 with 95% humidity. The PDC lines were cultured according to standard operating procedures established by the NCI PDMR. Briefly, all PDCs were thawed and cultured in Matrigel-coated flasks prepared with a working solution of 1X Ham's F-12 nutrient mix, without supplementation (Invitrogen, Waltham, MA, cat. 11765054), 100 U/mL penicillin-streptomycin (Invitrogen, cat. 15140122), and 2.5% Matrigel (Corning Inc., Corning, NY, cat. 354248) for the first three passages. The 947758-054-R-J2-PDC line was cultured in 6B/Colon 1A media, which includes advanced DMEM/F-12 (Thermo Fisher Scientific, cat. 12634028), 10 mM HEPES (Thermo Fisher Scientific, cat. 15630080), 1X GlutaMAX supplement (Thermo Fisher Scientific, cat. 35050061), 0.1 mg/mL primocin (InvivoGen, cat. ant-pm-2), 10% defined fetal bovine serum, heat inactivated (HyClone Laboratories Inc., cat. SH30070.03HI), 1.25 mM N-Acetyl-L-cysteine (Sigma-Aldrich, cat. A9165), 10 mM nicotinamide (Sigma-Aldrich, cat. N0636), 1X B-27 supplement (Thermo Fisher Scientific, cat. 17504044), 1X N-2 supplement (Thermo Fisher Scientific, cat. 17502048), and 10 microM Y-27632 dihydrochloride (Tocris Bioscience, cat. 1254). The 876862-298-R-J1-PDC was cultured in 6E media, which includes all 6B/Colon 1A media components plus 50% L-WRN conditioned media (ATCC, cat. CRL-3276), 50 ng/mL recombinant human EGF recombinant protein (hEGF; Thermo Fisher Scientific, cat. PHG0311), 10 ng/mL recombinant human fibroblast growth factor 10 (hGFG-10; PeproTech, cat. 100-26), 1 ng/mL recombinant human fibroblast growth factor 2 (hFGF-2; PeproTech, cat. 100-18B), and 1 µM prostaglandin E2 (PGE2; Tocris, cat. 2296). The 227483-062-R1-J1-PDC line was cultured in Panc media, containing all 6E components except hFGF-2, with the addition of 500 nM SB-431542 (Selleckchem, cat. S1067) and 10 nM gastrin (Tocris, cat. 3006). […]
# 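Throughout, for viability, T/C: drug exposure lasted seven days before viability readout; 100% = DMSO vehicle control wells.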
structure (smiles),measurement,setting,value
C#Cc1c(F)ccc2cc(O)cc(-c3ncc4c(N5CC6CCC(C5)N6)nc(OCC56CCCN5CC(F)C6)nc4c3F)c12 (configuration not stated) + CN1CCN(c2cc(C(=O)Nc3cc4cc(-c5cnn(C)c5)ccc4cn3)ccn2)CC1,pIC50,second compound 0.0316 µM,< 5.00
same,pIC50,second compound 0.1 µM,< 5.00
same,pIC50,second compound 0.316 µM,5.44
same,pIC50,second compound 1 µM,> 7.50
same,pIC50,second compound 3.16 µM,> 7.50
same,pIC50,second compound 10 µM,> 7.50
same,"viability, T/C","second compound 0.0316 µM, first compound 0.0316 µM",122%
same,"viability, T/C","second compound 0.0316 µM, first compound 0.1 µM",113%
same,"viability, T/C","second compound 0.0316 µM, first compound 0.316 µM",103%
same,"viability, T/C","second compound 0.0316 µM, first compound 1 µM",122%
same,"viability, T/C","second compound 0.0316 µM, first compound 3.16 µM",118%
same,"viability, T/C","second compound 0.0316 µM, first compound 10 µM",105%
same,"viability, T/C","second compound 0.1 µM, first compound 0.0316 µM",102%
same,"viability, T/C","second compound 0.1 µM, first compound 0.1 µM",104%
same,"viability, T/C","second compound 0.1 µM, first compound 0.316 µM",99.1%
same,"viability, T/C","second compound 0.1 µM, first compound 1 µM",117%
same,"viability, T/C","second compound 0.1 µM, first compound 3.16 µM",99.5%
same,"viability, T/C","second compound 0.1 µM, first compound 10 µM",98%
same,"viability, T/C","second compound 0.316 µM, first compound 0.0316 µM",50.1%
same,"viability, T/C","second compound 0.316 µM, first compound 0.1 µM",49.4%
same,"viability, T/C","second compound 0.316 µM, first compound 0.316 µM",50.3%
same,"viability, T/C","second compound 0.316 µM, first compound 1 µM",54.3%
same,"viability, T/C","second compound 0.316 µM, first compound 3.16 µM",53%
same,"viability, T/C","second compound 0.316 µM, first compound 10 µM",39.9%
same,"viability, T/C","second compound 1 µM, first compound 0.0316 µM",0.6%
same,"viability, T/C","second compound 1 µM, first compound 0.1 µM",0.88%
same,"viability, T/C","second compound 1 µM, first compound 0.316 µM",0.41%
same,"viability, T/C","second compound 1 µM, first compound 1 µM",0.41%
same,"viability, T/C","second compound 1 µM, first compound 3.16 µM",0.51%
same,"viability, T/C","second compound 1 µM, first compound 10 µM",0.64%
same,"viability, T/C","second compound 3.16 µM, first compound 0.0316 µM",0.13%
same,"viability, T/C","second compound 3.16 µM, first compound 0.1 µM",0.2%
same,"viability, T/C","second compound 3.16 µM, first compound 0.316 µM",0.15%
same,"viability, T/C","second compound 3.16 µM, first compound 1 µM",0.14%
same,"viability, T/C","second compound 3.16 µM, first compound 3.16 µM",0.15%
same,"viability, T/C","second compound 3.16 µM, first compound 10 µM",0.15%
same,"viability, T/C","second compound 10 µM, first compound 0.0316 µM",0.36%
same,"viability, T/C","second compound 10 µM, first compound 0.1 µM",0.22%
same,"viability, T/C","second compound 10 µM, first compound 0.316 µM",0.15%
same,"viability, T/C","second compound 10 µM, first compound 1 µM",0.19%
same,"viability, T/C","second compound 10 µM, first compound 3.16 µM",0.2%
same,"viability, T/C","second compound 10 µM, first compound 10 µM",0.16%
